The results in this text go back to paper PMC8867915, “Amyloid and Hydrogel Formation of a Peptide Sequence from a Coronavirus Spike Protein” (ACS Nano, 2022).

A short description of data set [1]: Hydrogel formation (tube inversion) as a function of pH. The data set is classed as physicochemical. The note with it: 1 wt % peptide in aqueous NaOH; cloudy gel, does not flow under tube inversion; liquid at the other pH values studied (pH 3-12). From the text: Peptide […] is able to form a hydrogel under precisely defined conditions. […] The apple-green birefringence of the peptide gel stained with Congo red (Figure 6b) together with TEM images (Figure 6c) reveal that the hydrogel comprises a tight network of 20–50 nm wide peptide nanotapes. The viscoelastic response of the gel was studied by rheology. The linear regime was first identified by strain sweep experiments (Figure S5). The elastic modulus G′ > G′′ (the shear loss modulus) and G′ is weakly dependent on frequency and reaches a value >10^5 Pa at a high frequency (ω = 100 rad s^–1). These are all characteristic rheological signatures of gels, and the high frequency value of G′ is higher than that observed for many peptide hydrogels.[48] The FTIR spectrum shown in Figure 6e is very similar to that discussed for the solutions of 1 wt % […] at pH 4 and 5 and is consistent with a β-sheet secondary structure. The SAXS data was again fitted using a model form factor of Gaussian bilayers (Figure 6f). […]
Peptide […] was supplied by Peptide Synthetics (Peptide Protein Research Limited), Fareham, UK as a TFA salt. The molar mass by electrospray mass spectrometry is 1405.595 g mol^–1 and the purity is >95%, determined by high performance liquid chromatography (HPLC) in a gradient HPLC using an acetonitrile (0.1% TFA)/water (0.1% TFA) gradient with a Kinetex 2.6u XB-C18 100A column. […]

Data set [2] can be described thus: Rheology of peptide gel (frequency sweep of shear moduli). Particulars: 1 wt % peptide gel at pH 4.4; cone and plate; constant stress 30 Pa; ω = 100 rad s^–1. The format is physicochemical. From the text:
Peptide […] is able to form a hydrogel under precisely defined conditions. […] The apple-green birefringence of the peptide gel stained with Congo red (Figure 6b) together with TEM images (Figure 6c) reveal that the hydrogel comprises a tight network of 20–50 nm wide peptide nanotapes. The viscoelastic response of the gel was studied by rheology. The linear regime was first identified by strain sweep experiments (Figure S5). The elastic modulus G′ > G′′ (the shear loss modulus) and G′ is weakly dependent on frequency and reaches a value >10^5 Pa at a high frequency (ω = 100 rad s^–1). These are all characteristic rheological signatures of gels, and the high frequency value of G′ is higher than that observed for many peptide hydrogels.[48] The FTIR spectrum shown in Figure 6e is very similar to that discussed for the solutions of 1 wt % […] at pH 4 and 5 and is consistent with a β-sheet secondary structure. The SAXS data was again fitted using a model form factor of Gaussian bilayers (Figure 6f). The XRD data is characterized by strong diffraction peaks at 10 and 4.7 Å, consistent with an amyloid cross-β diffraction pattern.[12],[49]−[51] The other weaker peaks can also be ascribed to β-sheet features.[49],[52]−[57]
Dynamic shear moduli were measured using a controlled stress AR-2000 rheometer from TA Instruments. […]

For the sequence RSAIEDLLFDKV, in data set [1], the “pH at which hydrogel formation is observed” value came out at 4.4 pH. The “shear elastic modulus G′ at high frequency” value in data set [2] is listed as > 10^5 Pa.
